Test results as given in patent US20240043883A1 (Board of Trustees of Michigan State University, priority 2021, published 2024).

Assays:
[1] = target: engineered phosphite dehydrogenase PTDH (12x Opt PTDH) from Pseudomonas stutzeri, SEQ ID NO: 73 (Stutzerimonas stutzeri, UniProt O69054, A319E/A325V/C336D/D13E/E130K/E175A/E332N/I150F/I313L/L276Q/M26I/Q132R/Q137R/Q215L/R275Q/V315A/V71I); assay: Michaelis-Menten kinetics of PTDH with sodium phosphite, reduction of NADP^+ at 340 nm; type: biochemical; conditions: sodium phosphite 10-1000 μM, NADP^+ 0.3 mM; 100 mM sodium phosphate pH 8.0, 25 °C
Protocol: All assays were carried out in triplicate at 25° C. in 100 mM sodium phosphate pH 8.0 in a final volume of 200 μL, unless otherwise specified. All stock solutions were prepared in 100 mM sodium phosphate pH 8.0, unless otherwise specified. A sodium phosphite stock solution was prepared by dissolving an appropriate amount of the solid in a volumetric flask with water.
The assay contained PTDH (0.05 mg mL^−1, 10 μL of a 1 mg mL^−1 stock) and NADP^+ (0.3 mM, 10 μL of a 5 mg mL^−1 stock). The assays were initiated with the addition of sodium phosphite in varying concentrations (10-1000 μM). See. FIG. 23.

[2] = target: T1, Corynebacterium glutamicum Cg10062 variant E114N, SEQ ID NO: 62 (Corynebacterium glutamicum, UniProt Q8NU77, E115N); assay: Effect of NADP(H) on ACA hydration during in vitro 3-HP synthesis with cofactor recycling; type: biochemical; conditions: 100 mM ACA conversion to 3-HP with 0.001-1 eq NADP^+, 25 °C, pH 8.0
T1 sequence (Q8NU77 with tags, fused parts or gaps E115N): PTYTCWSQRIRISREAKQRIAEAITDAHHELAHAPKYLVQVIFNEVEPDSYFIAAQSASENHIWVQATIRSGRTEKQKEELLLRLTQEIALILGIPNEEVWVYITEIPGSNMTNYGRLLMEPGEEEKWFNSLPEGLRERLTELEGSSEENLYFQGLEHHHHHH
Excerpt: (§1) This in vitro pathway developed in this study utilizes the novel Cg10062 (E114N) hydratase-only mutant with two other enzymes, YdfG and PTDH (FIG. 1). YdfG is a NADP^+-dependent 3-hydroxy acid dehydrogenase from E. coli and has previously been used for the in vivo production of 3-HP via the β-alanine pathway. […] For our system to be applied practically, the cost of cofactor is an important consideration. NADPH is an expensive cofactor and in order for the pathway to be an efficient, cost-effective pathway, the use of sub-stoichiometric amounts of co-factor was carried out. […] The formation of 3-HP in these assays were also confirmed using ^1H NMR (FIG. 4A-C).
(§2) All stocks solutions were prepared in 100 mM sodium phosphate pH 8.0. Ethylene glycol (20% w/v) was added to all enzyme stock solutions. […] Each reaction was carried out in duplicate at 25° C. with constant slow mixing on a rocking platform. Reactions were initiated by the addition of ACA. Samples from each reaction were quenched at indicated timepoints for analysis by HPLC and ^1H NMR, as described below.
All samples (100 μL) were quenched and by addition of 5 μL of 18 M sulfuric acid. The final volume was adjusted to 500 μL using 0.01 N sulfuric acid. The samples were prepared for HPLC using Whatman Mini-UniPrep® G2 syringeless filters with a glass microfiber membrane.

Cg10062 (E114N) = assay: In vitro 3-HP synthesis from ACA with cofactor recycling (Cg10062 (E114N), YdfG, PTDH), HPLC and 1H NMR; type: biochemical, Corynebacterium glutamicum; conditions: 100 mM ACA, 0.001-1 eq NADP+; hydration significantly faster at lower NADP+
Excerpt: as §1, §2
All samples (100 μL) were quenched and by addition of 5 μL of 18 M sulfuric acid. The final volume was adjusted to 500 μL using 0.01 N sulfuric acid. The samples were prepared for HPLC using Whatman Mini-UniPrep® G2 syringeless filters with a glass microfiber membrane. […]

[3] = target: T1, Corynebacterium glutamicum Cg10062 variant E114N, SEQ ID NO: 62; assay: Michaelis-Menten kinetics of ACA hydration, coupled enzyme assay (MSAD/ADH, NADH oxidation at 340 nm)
Protocol: Steady-state kinetics were carried out using a Molecular Devices SpectraMax iD3 multi-mode microplate reader and Shimadzu UV2600 spectrophotometer. All assays were carried out in triplicate at 25° C. in 100 mM sodium phosphate pH 8.0 with a final volume of 200 μL, unless otherwise specified. The reduction of acetaldehyde by NADH-dependent alcohol dehydrogenase (ADH) was monitored by following the oxidation of NADH at 340 nm (ε=6220 M^−1 cm^−1).
All stock solutions, except ADH, required for the kinetics assays used for determining hydratase and hydratase/decarboxylase activities were prepared in 100 mM sodium phosphate pH 8.0. […] Stock solutions of ADH were prepared using deionized water, as recommended by the manufacturer. […] The final pH of each assay was 8.
The amount of enzyme used in each assay was varied in order to observe measurable activity. […] The ratios of MSA and acetaldehyde formed by each enzyme was determined by the coupled enzyme assay (FIG. 13), using the differences in rates in the presence and absence of MSAD (Table 10). […] All other components used for steady-state kinetics were identical to those used in the initial screening assays.

[4] = substrate: O=CCC(=O)O; assay: purified protein, by the assay type; type: biochemical, Escherichia coli; conditions: other: MSA generated in situ from ACA (10-2000 μM), NADPH 0.3 mM, 100 mM sodium phosphate pH 8.0, 25 °C
Protocol: YdfG was characterized using the coupled enzyme assay show in FIG. 19. All assays were carried out in triplicate at 25° C. in 100 mM sodium phosphate pH 8.0, in a final volume of 200 μL, unless otherwise specified. All stock solutions prepared for the assays were prepared in 100 mM sodium phosphate pH 8.0. […] The assay contained a large excess of Cg10062 (E114N) (2 U), YdfG (0.005 mg mL^−1, 10 μL of a 0.1 mg mL^−1 stock) and NADPH (0.3 mM, 10 μL of a 5 mg mL^−1 stock).

[5] = 1H NMR characterization of YdfG-catalyzed reduction of MSA; type: biochemical; conditions: provided with NADPH as a cofactor
Protocol: The volume was adjusted to 680 μL with 100 mM sodium phosphate pH 8.0. The reaction was initiated with the addition of Cg10062 (E114D) (20 μL of 3 mg mL^−1 stock). ^1H NMR spectra were obtained after incubating the samples at 25° C. for 1 h. […] Resonances at δ 2.23; (t, 2H) and δ 3.58; (t, 2H) correspond to 3-hydroxypropionate.

[6] = substrate: O=CCC(=O)O; assay: purified protein, by the assay type; type: biochemical, Pseudomonas putida KT2440; conditions: other: MSA generated in situ from ACA (50-10,000 μM), NADH 0.1 mg/mL, 100 mM potassium phosphate pH 8.0, 25 °C
Protocol: MmsB was characterized using the coupled enzyme assay show in FIG. 28. All assays were carried out in triplicate at 25° C. in 100 mM potassium phosphate pH 8.0, at a final volume of 1 mL. All stock solutions used for the assays were prepared in 100 mM potassium phosphate pH 8.0. […] The assay contained Cg10062 (E114N) (0.8 U), MmsB (0.001 mg mL−1, 10 μL of a 0.1 mg mL−1 stock) and NADH (0.1 mg/mL, 20 μL of a 5 mg mL−1 stock). […] All other components and methods used for steady-state kinetics were identical to those described in Example 5.

pH dependence of MmsB = type: biochemical; conditions: in potassium phosphate; 25° C.
Protocol: The pH dependence of MmsB was measured using four different buffer systems: 100 mM potassium phosphate, 50 mM Tris-HCl, 50 mM bis-tris propane and 50 mM HEPES buffers for pH 6.5-8.0, 7.0-9.0, 7.0-9.0 and 7.0-8.0, respectively. The pH dependence was studied using the respective enzyme assay used for kinetic characterization as described previously. All pH studies were carried out in triplicate (1 mL) on a Shimadzu UV2600 spectrophotometer at 25° C. and checked to ensure that the final pH of each assay remained unchanged with the addition of assay components. All stock solutions were prepared in water and the assays were carried out in the respective buffers for each pH.

Chain of engineered phosphite dehydrogenase PTDH (12x Opt PTDH) from Pseudomonas stutzeri, SEQ ID NO: 73 (O69054 other isoform, or with tags, fused parts or gaps with the stated changes): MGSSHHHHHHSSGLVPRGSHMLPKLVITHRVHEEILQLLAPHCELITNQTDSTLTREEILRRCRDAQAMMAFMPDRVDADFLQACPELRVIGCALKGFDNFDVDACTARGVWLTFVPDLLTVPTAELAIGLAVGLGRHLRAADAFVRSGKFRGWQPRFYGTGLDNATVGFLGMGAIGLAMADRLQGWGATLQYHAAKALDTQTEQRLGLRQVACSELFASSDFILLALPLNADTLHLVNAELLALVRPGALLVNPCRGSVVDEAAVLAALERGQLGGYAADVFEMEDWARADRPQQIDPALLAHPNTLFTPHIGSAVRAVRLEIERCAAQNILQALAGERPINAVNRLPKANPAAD

Molecule: O=[PH]([O-])[O-].[Na+].[Na+] [sodium phosphite]
- Km [1]: 778 ± 44 µM
- kcat [1]: 3.45 ± 0.06 s⁻¹

Molecule: NADP(H) [listing 1 of 2 here]
- inhibitory effect on Cg10062 (E114N) [2]: inhibitory effect

Molecule: NADP(H) [listing 2 of 2 here]
- effect on Cg10062 (E114N) (hydration of ACA to MSA) (Cg10062 (E114N)): inhibitory effect

Molecule: C#CC(=O)O [ACA, acetylenecarboxylic acid]
- kcat fold higher than Cg10062 (E114D) ([3]; ACA hydration, relative to E114D): 1.5 fold
- kcat fold higher than Cg10062 (E114Q) ([3]; ACA hydration, relative to E114Q): 3 fold
- overall catalytic efficiency relative to wild-type ([3]; ACA hydration, relative to wild-type Cg10062): comparable to that of the wild-type enzyme
- kcat ([3]; ACA, 100 mM sodium phosphate pH 8.0, 25 °C): 1.04 ± 0.07 s⁻¹

B1: E. coli 3-hydroxy acid dehydrogenase YdfG, SEQ ID NO: 75 (Escherichia coli K-12) (protein)
chain: MIVLVTGATAGFGECITRRFIQQGHKVIATGRRQERLQELKDELGDNLYIAQLDVRNRAAIEEMLASLPAEWCNIDILVNNAGLALGMEPAHKASVEDWETMIDTNNKGLVYMTRAVLPGMVERNHGHIINIGSTAGSWPYAGGNVYGATKAFVRQFSLNLRTDLHGTAVRVTDIEPGLVGGTEFSNVRFKGDDGKAEKTYQNTVALTPEDVSEAVWWVSTLPAHVNINTLEMMPVTQSYAGLNVHRQENLYFQGLEHHHHHH
- Km [4]: 137 ± 18 µM
- kcat [4]: 6.62 ± 0.43 s⁻¹
- kcat/Km [4]: 48300 ± 7100 M⁻¹ s⁻¹

B2: YdfG: NADP+-dependent 3-hydroxy acid dehydrogenase from E. coli, SEQ ID NO: 75 (protein)
chain: B1 chain
modifications: YdfG from Escherichia coli plus TEV protease recognition site and C-terminal His6-tag
- conversion of malonate semialdehyde to 3-HP [5]: complete conversion

B3: P. putida KT2440 3-hydroxyisobutyrate dehydrogenase MmsB, SEQ ID NO: 76 (Pseudomonas putida KT2440) (protein)
chain: MRIAFIGLGNMGAPMARNLIKAGHQLNLFDLNKAVLAELAELGGQISPSPKDAAANSELVITMLPAAAHVRSVYLNEDGVLAGIRPGTPTVDCSTIDPQTARDVSKAAAAKGVDMGDAPVSGGTGGAAAGTLTFMVGASTELFASLKPVLEQMGRNIVHCGEVGTGQIAKICNNLLLGISMIGVSEAMALGNALGIDTKVLAGIINSSTGRCWSSDTYNPWPGIIETAPASRGYTGGFGAELMLKDLGLATEAARQAHQPVILGAVAQQLYQAMSLRGEGGKDFSAIVEGYRKKDENLYFQGLEHHHHHH
- Km [6]: 2220 ± 192 µM
- kcat [6]: 101 ± 5 s⁻¹
- kcat/Km [6]: 45500 ± 5900 M⁻¹ s⁻¹

B4: MmsB: 3-hydroxyisobutyrate dehydrogenase from P. putida KT2440, SEQ ID NO: 76 (protein)
chain: B3 chain
modifications: MmsB from Pseudomonas putida KT2440 plus TEV protease recognition site and C-terminal His6-tag
- pH of highest activity (pH dependence of MmsB): 7
